In patent US20070059378A1, “Medical composition for balancing bodily processes” (Metagenics, Inc., priority 2001, published 2007):

Test system: subjects with PMS symptoms
Assay: Clinical study on PMS symptoms: Shortened Premenstrual Assessment Form (SPAF)
Assay type: in vivo, women
Conditions: medical food/I3C group vs medical food/placebo group
Protocol: The clinical trial was performed at the Functional Medicine Research Center, Gig Harbor, Wash. […] Exclusion criteria for the study included: evidence of untreated endocrine, neurological, or infectious disorder; pregnancy or lactation; history of diabetes, mental illness or attempted suicide, or liver, kidney or heart disease; use of oral corticosteroids within four weeks prior to the screening; use of anti-arrhythmic or other cardiac medications.
The study was a […], 2-armed trial with stratification based on the use of birth control medication. Primary endpoints were monitored at the Screening Visit, Visit 1, Visit 2, and Visit 3. […]
Two research-validated, PMS-specific questionnaires were chosen for monitoring PMS symptoms: the Shortened Premenstrual Assessment Form (SPAF) and the Menstrual Distress Questionnaire (MDQ). […] The MDQ data is transformed to provide a normalized score for which a population mean of 50 and a standard deviation of 10 have been determined as reference values. […]
Baseline data (the level of symptoms experienced in the preceding 2 menstrual cycles) were obtained from averaging the Screening Visit and Visit 1 values, and served as a control for non-intervention variability. Laboratory and questionnaire data were analyzed by a one-way analysis of variance (ANOVA) using JMP Statistical Package (SAS Institute, Cary, N.C.). […]

OCc1c[nH]c2ccccc12 [Example I3C, indole-3-carbinol]
additional effect of I3C on PMS symptoms (questionnaire data) over medical food/placebo: no difference
additional effect of I3C on PMS symptoms (questionnaire data) over medical food/placebo (listed as 13C): no additional effect
